Test: excess molar enthalpy (molar enthalpy of mixing); xn = mol fraction of the nth substance listed
Conditions: Liquid, Flow calorimetry

CC(C)(C)O [2-methylpropan-2-ol] + COC(=O)OC
excess molar enthalpy [kcal/mol], 1000 kPa
Conditions	298.15 K	328.15 K
x2 = 0.05	0.128	0.124
x2 = 0.1	0.237	0.229
x2 = 0.15	0.329	0.319
x2 = 0.2	0.404	0.399
x2 = 0.25	0.468	0.462
x2 = 0.3	0.5164	0.5154
x2 = 0.35	0.554	0.5556
x2 = 0.4	0.5848	0.5831
x2 = 0.45	0.6031	0.602
x2 = 0.5	0.6101	0.6083
x2 = 0.55	0.605	0.6034
x2 = 0.6	0.5876	0.5891
x2 = 0.65	0.5647	0.5623
x2 = 0.7	0.5272	0.5257
x2 = 0.75	0.4738	0.4695
x2 = 0.8	0.412	0.411
x2 = 0.9	0.252	0.245
x2 = 0.95	0.134	0.128

CCC(C)O (stereo unspecified) [butan-2-ol] + COC(=O)OC
Conditions	excess molar enthalpy [kcal/mol]
298.15 K, 1000 kPa, x2 = 0.05	0.126
298.15 K, 1000 kPa, x2 = 0.1	0.237
298.15 K, 1000 kPa, x2 = 0.15	0.328
298.15 K, 1000 kPa, x2 = 0.2	0.4
298.15 K, 1000 kPa, x2 = 0.25	0.459
298.15 K, 1000 kPa, x2 = 0.3	0.5033
298.15 K, 1000 kPa, x2 = 0.35	0.5352
298.15 K, 1000 kPa, x2 = 0.4	0.5549
298.15 K, 1000 kPa, x2 = 0.45	0.5664
298.15 K, 1000 kPa, x2 = 0.5	0.568
298.15 K, 1000 kPa, x2 = 0.55	0.5595
298.15 K, 1000 kPa, x2 = 0.6	0.5407
298.15 K, 1000 kPa, x2 = 0.65	0.5126
298.15 K, 1000 kPa, x2 = 0.7	0.4758
298.15 K, 1000 kPa, x2 = 0.75	0.43
298.15 K, 1000 kPa, x2 = 0.8	0.3661
298.15 K, 1000 kPa, x2 = 0.9	0.2152
298.15 K, 1000 kPa, x2 = 0.95	0.1148
313.15 K, 100 kPa, x2 = 0.051	0.124
313.15 K, 100 kPa, x2 = 0.102	0.238
313.15 K, 100 kPa, x2 = 0.148	0.323
313.15 K, 100 kPa, x2 = 0.202	0.412
313.15 K, 100 kPa, x2 = 0.251	0.4757
313.15 K, 100 kPa, x2 = 0.352	0.5707
313.15 K, 100 kPa, x2 = 0.4	0.6006
313.15 K, 100 kPa, x2 = 0.45	0.6191
313.15 K, 100 kPa, x2 = 0.501	0.6252
313.15 K, 100 kPa, x2 = 0.551	0.6211
313.15 K, 100 kPa, x2 = 0.6	0.6077
313.15 K, 100 kPa, x2 = 0.649	0.5813
313.15 K, 100 kPa, x2 = 0.701	0.5413
313.15 K, 100 kPa, x2 = 0.749	0.4921
313.15 K, 100 kPa, x2 = 0.799	0.426
313.15 K, 100 kPa, x2 = 0.849	0.345
313.15 K, 100 kPa, x2 = 0.899	0.248
313.15 K, 100 kPa, x2 = 0.951	0.128
313.15 K, 1000 kPa, x2 = 0.051	0.127
313.15 K, 1000 kPa, x2 = 0.098	0.234
313.15 K, 1000 kPa, x2 = 0.149	0.328
313.15 K, 1000 kPa, x2 = 0.198	0.411
313.15 K, 1000 kPa, x2 = 0.251	0.4777
313.15 K, 1000 kPa, x2 = 0.348	0.5696
313.15 K, 1000 kPa, x2 = 0.4	0.5987
313.15 K, 1000 kPa, x2 = 0.451	0.6176
313.15 K, 1000 kPa, x2 = 0.501	0.6242
313.15 K, 1000 kPa, x2 = 0.551	0.6223
313.15 K, 1000 kPa, x2 = 0.6	0.6059
313.15 K, 1000 kPa, x2 = 0.649	0.5827
313.15 K, 1000 kPa, x2 = 0.701	0.542
313.15 K, 1000 kPa, x2 = 0.749	0.4932
313.15 K, 1000 kPa, x2 = 0.799	0.426
313.15 K, 1000 kPa, x2 = 0.85	0.346
313.15 K, 1000 kPa, x2 = 0.899	0.248
313.15 K, 1000 kPa, x2 = 0.951	0.126
313.15 K, 10000 kPa, x2 = 0.051	0.135
313.15 K, 10000 kPa, x2 = 0.1	0.248
313.15 K, 10000 kPa, x2 = 0.15	0.344
313.15 K, 10000 kPa, x2 = 0.2	0.425
313.15 K, 10000 kPa, x2 = 0.25	0.4896
313.15 K, 10000 kPa, x2 = 0.301	0.5404
313.15 K, 10000 kPa, x2 = 0.35	0.5784
313.15 K, 10000 kPa, x2 = 0.399	0.6045
313.15 K, 10000 kPa, x2 = 0.451	0.6203
313.15 K, 10000 kPa, x2 = 0.501	0.6251
313.15 K, 10000 kPa, x2 = 0.551	0.6178
313.15 K, 10000 kPa, x2 = 0.599	0.6019
313.15 K, 10000 kPa, x2 = 0.65	0.5699
313.15 K, 10000 kPa, x2 = 0.751	0.4739
313.15 K, 10000 kPa, x2 = 0.801	0.413
313.15 K, 10000 kPa, x2 = 0.851	0.335
313.15 K, 10000 kPa, x2 = 0.901	0.238
313.15 K, 10000 kPa, x2 = 0.949	0.127
328.15 K, 1000 kPa, x2 = 0.05	0.128
328.15 K, 1000 kPa, x2 = 0.1	0.244
328.15 K, 1000 kPa, x2 = 0.15	0.345
328.15 K, 1000 kPa, x2 = 0.201	0.428
328.15 K, 1000 kPa, x2 = 0.25	0.496
328.15 K, 1000 kPa, x2 = 0.302	0.5534
328.15 K, 1000 kPa, x2 = 0.352	0.5928
328.15 K, 1000 kPa, x2 = 0.402	0.6206
328.15 K, 1000 kPa, x2 = 0.45	0.6375
328.15 K, 1000 kPa, x2 = 0.502	0.6437
328.15 K, 1000 kPa, x2 = 0.551	0.6361
328.15 K, 1000 kPa, x2 = 0.603	0.6173
328.15 K, 1000 kPa, x2 = 0.653	0.5904
328.15 K, 1000 kPa, x2 = 0.7	0.5518
328.15 K, 1000 kPa, x2 = 0.751	0.496
328.15 K, 1000 kPa, x2 = 0.802	0.4279
328.15 K, 1000 kPa, x2 = 0.9	0.2527
328.15 K, 1000 kPa, x2 = 0.95	0.1345

— the NIST ThermoML archive (doi:10.1016/j.jct.2005.07.011)
